ChEMBL document CHEMBL4507272 (2021)

Tests used:
[1] = tested on: Tyrosine-protein kinase ABL1 (Homo sapiens), P00519 [F317L]; conditions: Compound concentration 1000.0 nM
[2] = tested on: Tyrosine-protein kinase ABL1 (Homo sapiens), P00519 [M351T]; conditions: Compound concentration 1000.0 nM
[3] = tested on: Tyrosine-protein kinase ABL1 (Homo sapiens), P00519 [T315I]; conditions: Compound concentration 1000.0 nM
[4] = target: Activin receptor type-2B (Homo sapiens) (UniProt Q13705); conditions: Compound concentration 1000.0 nM
[5] = target: Bone morphogenetic protein receptor type-2 (Homo sapiens) (UniProt Q13873); conditions: Compound concentration 1000.0 nM
Chain of Bone morphogenetic protein receptor type-2 (Homo sapiens) (Q13873 whole entry): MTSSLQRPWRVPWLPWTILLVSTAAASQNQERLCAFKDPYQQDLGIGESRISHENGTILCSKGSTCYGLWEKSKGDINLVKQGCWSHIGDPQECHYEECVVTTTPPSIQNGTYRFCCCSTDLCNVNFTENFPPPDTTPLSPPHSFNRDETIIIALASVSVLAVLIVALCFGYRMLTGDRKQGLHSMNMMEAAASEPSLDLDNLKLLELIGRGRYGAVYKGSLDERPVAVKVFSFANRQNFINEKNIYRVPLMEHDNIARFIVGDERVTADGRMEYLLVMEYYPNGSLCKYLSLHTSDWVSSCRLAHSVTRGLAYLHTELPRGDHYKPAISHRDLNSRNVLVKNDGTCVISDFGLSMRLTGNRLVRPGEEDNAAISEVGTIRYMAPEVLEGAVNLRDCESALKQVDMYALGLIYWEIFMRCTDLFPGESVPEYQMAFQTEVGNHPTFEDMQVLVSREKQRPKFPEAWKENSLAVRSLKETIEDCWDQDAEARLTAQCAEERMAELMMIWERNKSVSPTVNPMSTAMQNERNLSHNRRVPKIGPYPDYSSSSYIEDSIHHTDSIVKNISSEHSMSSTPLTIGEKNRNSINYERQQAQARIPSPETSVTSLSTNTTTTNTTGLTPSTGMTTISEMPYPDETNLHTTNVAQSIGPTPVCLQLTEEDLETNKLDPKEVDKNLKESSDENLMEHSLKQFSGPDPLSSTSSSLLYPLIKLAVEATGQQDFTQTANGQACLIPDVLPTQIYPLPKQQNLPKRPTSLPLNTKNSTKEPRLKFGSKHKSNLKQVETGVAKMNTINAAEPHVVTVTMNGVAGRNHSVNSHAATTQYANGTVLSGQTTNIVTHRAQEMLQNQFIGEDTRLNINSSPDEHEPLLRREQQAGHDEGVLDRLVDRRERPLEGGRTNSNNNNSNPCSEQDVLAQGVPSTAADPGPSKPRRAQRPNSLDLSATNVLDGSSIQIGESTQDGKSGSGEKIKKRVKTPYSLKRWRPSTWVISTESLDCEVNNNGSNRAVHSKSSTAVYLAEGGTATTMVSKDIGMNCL

[6] = target: Calcium/calmodulin-dependent protein kinase type 1B (Homo sapiens) (UniProt Q6P2M8); conditions: Compound concentration 1000.0 nM
[7] = target: Calcium/calmodulin-dependent protein kinase type 1D (Homo sapiens) (UniProt Q8IU85); conditions: Compound concentration 1000.0 nM
[8] = target: Cyclin-dependent kinase 8 (Homo sapiens) (UniProt P49336); conditions: Compound concentration 1000.0 nM
Chain of Cyclin-dependent kinase 8 (Homo sapiens) (P49336 whole entry): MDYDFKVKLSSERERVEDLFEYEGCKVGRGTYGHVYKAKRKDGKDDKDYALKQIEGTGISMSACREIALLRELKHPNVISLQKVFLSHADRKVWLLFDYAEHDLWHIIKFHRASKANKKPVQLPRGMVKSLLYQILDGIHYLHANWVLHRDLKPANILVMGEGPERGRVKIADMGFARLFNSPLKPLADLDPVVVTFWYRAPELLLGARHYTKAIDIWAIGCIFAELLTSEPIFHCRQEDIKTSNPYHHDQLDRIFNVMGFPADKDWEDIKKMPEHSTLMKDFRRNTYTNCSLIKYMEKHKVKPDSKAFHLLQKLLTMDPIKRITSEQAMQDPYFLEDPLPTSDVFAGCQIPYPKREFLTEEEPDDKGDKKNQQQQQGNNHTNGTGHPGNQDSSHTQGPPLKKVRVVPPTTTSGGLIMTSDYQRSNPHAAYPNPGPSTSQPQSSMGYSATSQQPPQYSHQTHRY

[9] = target: Cyclin-dependent kinase 9 (Homo sapiens) (UniProt P50750); conditions: Compound concentration 1000.0 nM
[10] = target: Casein kinase I isoform gamma-1 (Homo sapiens) (UniProt Q9HCP0); conditions: Compound concentration 1000.0 nM
[11] = target: Epithelial discoidin domain-containing receptor 1 (Homo sapiens) (UniProt Q08345); conditions: Compound concentration 1000.0 nM
[12] = target: Serine/threonine-protein kinase 17A (Homo sapiens) (UniProt Q9UEE5); conditions: Compound concentration 1000.0 nM
[13] = tested on: Epidermal growth factor receptor (Homo sapiens), P00533 [G719S]; conditions: Compound concentration 1000.0 nM
[14] = target: Ephrin type-A receptor 1 (Homo sapiens) (UniProt P21709); conditions: Compound concentration 1000.0 nM
Chain of Ephrin type-A receptor 1 (Homo sapiens) (P21709 whole entry): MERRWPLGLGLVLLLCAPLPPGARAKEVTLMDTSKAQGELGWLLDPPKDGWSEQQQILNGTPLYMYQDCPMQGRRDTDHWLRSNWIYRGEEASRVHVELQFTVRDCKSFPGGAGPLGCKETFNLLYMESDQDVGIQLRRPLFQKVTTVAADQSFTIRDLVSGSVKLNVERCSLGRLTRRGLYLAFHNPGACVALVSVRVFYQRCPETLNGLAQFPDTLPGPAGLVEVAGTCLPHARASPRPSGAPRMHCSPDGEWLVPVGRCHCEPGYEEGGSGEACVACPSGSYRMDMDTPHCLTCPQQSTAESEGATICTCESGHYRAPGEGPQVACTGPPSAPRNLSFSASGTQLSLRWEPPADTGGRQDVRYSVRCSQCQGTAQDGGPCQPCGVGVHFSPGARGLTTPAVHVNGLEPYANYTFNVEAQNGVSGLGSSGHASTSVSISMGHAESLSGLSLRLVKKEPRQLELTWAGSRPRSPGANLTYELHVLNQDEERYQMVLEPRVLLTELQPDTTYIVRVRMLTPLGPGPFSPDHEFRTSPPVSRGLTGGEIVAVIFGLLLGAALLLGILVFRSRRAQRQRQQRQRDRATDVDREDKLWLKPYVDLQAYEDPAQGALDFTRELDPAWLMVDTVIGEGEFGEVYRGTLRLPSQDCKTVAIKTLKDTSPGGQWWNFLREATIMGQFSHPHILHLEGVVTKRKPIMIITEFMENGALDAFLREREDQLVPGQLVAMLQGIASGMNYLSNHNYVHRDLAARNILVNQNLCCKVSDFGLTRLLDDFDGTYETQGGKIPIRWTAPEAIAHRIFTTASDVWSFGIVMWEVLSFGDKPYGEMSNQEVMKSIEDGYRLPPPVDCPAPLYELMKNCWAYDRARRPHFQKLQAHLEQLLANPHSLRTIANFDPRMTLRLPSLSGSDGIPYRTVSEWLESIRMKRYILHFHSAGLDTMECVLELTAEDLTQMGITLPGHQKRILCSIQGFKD

[15] = target: Ephrin type-B receptor 6 (Homo sapiens) (UniProt O15197); conditions: Compound concentration 1000.0 nM
[16] = target: Mitogen-activated protein kinase 1 (Homo sapiens) (UniProt P28482); conditions: Compound concentration 1000.0 nM
[17] = target: Tyrosine-protein kinase Fer (Homo sapiens) (UniProt P16591); conditions: Compound concentration 1000.0 nM
[18] = target: Tyrosine-protein kinase Fyn (Homo sapiens) (UniProt P06241); conditions: Compound concentration 1000.0 nM
[19] = target: Rhodopsin kinase GRK7 (Homo sapiens) (UniProt Q8WTQ7); conditions: Compound concentration 1000.0 nM
[20] = target: Leukocyte tyrosine kinase receptor (Homo sapiens) (UniProt P29376); conditions: Compound concentration 1000.0 nM
[21] = target: Mitogen-activated protein kinase kinase kinase kinase 2 (Homo sapiens) (UniProt Q12851); conditions: Compound concentration 1000.0 nM
[22] = target: Dual specificity mitogen-activated protein kinase kinase 1 (Homo sapiens) (UniProt Q02750); conditions: Compound concentration 1000.0 nM
[23] = target: Dual specificity mitogen-activated protein kinase kinase 5 (Homo sapiens) (UniProt Q13163); conditions: Compound concentration 1000.0 nM
Chain of Dual specificity mitogen-activated protein kinase kinase 5 (Homo sapiens) (Q13163 whole entry): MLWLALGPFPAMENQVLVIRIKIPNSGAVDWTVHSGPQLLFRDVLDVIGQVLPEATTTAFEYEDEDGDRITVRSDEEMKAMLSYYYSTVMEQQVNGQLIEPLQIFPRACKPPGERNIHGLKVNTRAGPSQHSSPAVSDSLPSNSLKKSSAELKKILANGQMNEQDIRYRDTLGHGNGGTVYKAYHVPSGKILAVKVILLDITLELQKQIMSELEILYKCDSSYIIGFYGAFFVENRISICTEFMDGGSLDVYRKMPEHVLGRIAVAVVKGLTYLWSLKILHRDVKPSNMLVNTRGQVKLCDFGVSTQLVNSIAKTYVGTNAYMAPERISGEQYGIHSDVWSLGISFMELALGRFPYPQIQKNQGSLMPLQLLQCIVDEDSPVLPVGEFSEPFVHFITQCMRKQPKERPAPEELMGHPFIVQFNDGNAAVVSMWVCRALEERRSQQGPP

[24] = target: Myosin light chain kinase (Homo sapiens) (UniProt Q32MK0); conditions: Compound concentration 1000.0 nM
[25] = target: Serine/threonine-protein kinase Nek7 (Homo sapiens) (UniProt Q8TDX7); conditions: Compound concentration 1000.0 nM
Chain of Serine/threonine-protein kinase Nek7 (Homo sapiens) (Q8TDX7 whole entry, looked up, canonical isoform): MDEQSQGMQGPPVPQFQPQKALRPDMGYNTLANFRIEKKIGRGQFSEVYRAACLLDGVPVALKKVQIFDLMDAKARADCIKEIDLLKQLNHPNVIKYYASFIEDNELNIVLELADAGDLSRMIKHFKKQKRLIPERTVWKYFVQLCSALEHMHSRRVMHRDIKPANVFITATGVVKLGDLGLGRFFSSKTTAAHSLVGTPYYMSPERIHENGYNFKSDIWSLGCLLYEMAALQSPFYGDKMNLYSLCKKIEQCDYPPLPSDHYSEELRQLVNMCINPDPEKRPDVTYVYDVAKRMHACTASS

[26] = target: Phosphatidylinositol 4,5-bisphosphate 3-kinase catalytic subunit alpha isoform (Homo sapiens) (UniProt P42336); conditions: Compound concentration 1000.0 nM
[27] = tested on: Phosphatidylinositol 4,5-bisphosphate 3-kinase catalytic subunit alpha isoform (Homo sapiens), P42336 [C420R]; conditions: Compound concentration 1000.0 nM
[28] = target: Phosphatidylinositol 5-phosphate 4-kinase type-2 gamma (Homo sapiens) (UniProt Q8TBX8); conditions: Compound concentration 1000.0 nM
[29] = target: Protein kinase C theta type (Homo sapiens) (UniProt Q04759); conditions: Compound concentration 1000.0 nM
[30] = tested on: Proto-oncogene tyrosine-protein kinase receptor Ret (Homo sapiens), P07949 [V804L]; conditions: Compound concentration 1000.0 nM
[31] = target: Serine/threonine-protein kinase RIO1 (Homo sapiens) (UniProt Q9BRS2); conditions: Compound concentration 1000.0 nM
[32] = target: Ribosomal protein S6 kinase alpha-3 (Homo sapiens) (UniProt P51812); conditions: Compound concentration 1000.0 nM
[33] = target: NUAK family SNF1-like kinase 2 (Homo sapiens) (UniProt Q9H093); conditions: Compound concentration 1000.0 nM
[34] = target: Proto-oncogene tyrosine-protein kinase Src (Homo sapiens) (UniProt P12931); conditions: Compound concentration 1000.0 nM
[35] = target: Serine/threonine-protein kinase 36 (Homo sapiens) (UniProt Q9NRP7); conditions: Compound concentration 1000.0 nM
[36] = target: Serine/threonine-protein kinase TNNI3K (Homo sapiens) (UniProt Q59H18); conditions: Compound concentration 1000.0 nM
[37] = target: Phosphatidylinositol 3-kinase catalytic subunit type 3 (Homo sapiens) (UniProt Q8NEB9); conditions: Compound concentration 1000.0 nM
[38] = target: 5-hydroxytryptamine receptor 1B (Homo sapiens) (UniProt P28222); conditions: Compound concentration 10.0 uM
[39] = target: D(2) dopamine receptor (Homo sapiens) (UniProt P14416); conditions: Compound concentration 10.0 uM
[40] = target: Sodium-dependent serotonin transporter (Homo sapiens) (UniProt P31645); conditions: Compound concentration 10.0 uM
Histamine H3 receptor = Histamine H3 receptor (Homo sapiens, UniProt Q9Y5N1); conditions: Compound concentration 10.0 uM
Chain of Histamine H3 receptor (Q9Y5N1 whole entry): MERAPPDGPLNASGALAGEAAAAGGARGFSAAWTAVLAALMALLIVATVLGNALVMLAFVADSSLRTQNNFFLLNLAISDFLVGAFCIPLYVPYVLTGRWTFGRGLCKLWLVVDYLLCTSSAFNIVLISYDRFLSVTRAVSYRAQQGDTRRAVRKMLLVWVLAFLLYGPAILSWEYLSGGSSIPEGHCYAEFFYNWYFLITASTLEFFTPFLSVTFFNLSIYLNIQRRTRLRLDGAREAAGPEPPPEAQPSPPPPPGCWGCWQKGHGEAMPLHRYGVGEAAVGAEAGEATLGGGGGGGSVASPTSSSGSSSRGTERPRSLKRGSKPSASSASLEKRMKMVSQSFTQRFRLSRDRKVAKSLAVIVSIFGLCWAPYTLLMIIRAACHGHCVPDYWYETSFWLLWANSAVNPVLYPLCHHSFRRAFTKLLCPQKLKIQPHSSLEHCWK

[41] = target: Alpha-1B adrenergic receptor (Homo sapiens) (UniProt P35368); conditions: Compound concentration 10.0 uM
Chain of Alpha-1B adrenergic receptor (Homo sapiens) (P35368 whole entry): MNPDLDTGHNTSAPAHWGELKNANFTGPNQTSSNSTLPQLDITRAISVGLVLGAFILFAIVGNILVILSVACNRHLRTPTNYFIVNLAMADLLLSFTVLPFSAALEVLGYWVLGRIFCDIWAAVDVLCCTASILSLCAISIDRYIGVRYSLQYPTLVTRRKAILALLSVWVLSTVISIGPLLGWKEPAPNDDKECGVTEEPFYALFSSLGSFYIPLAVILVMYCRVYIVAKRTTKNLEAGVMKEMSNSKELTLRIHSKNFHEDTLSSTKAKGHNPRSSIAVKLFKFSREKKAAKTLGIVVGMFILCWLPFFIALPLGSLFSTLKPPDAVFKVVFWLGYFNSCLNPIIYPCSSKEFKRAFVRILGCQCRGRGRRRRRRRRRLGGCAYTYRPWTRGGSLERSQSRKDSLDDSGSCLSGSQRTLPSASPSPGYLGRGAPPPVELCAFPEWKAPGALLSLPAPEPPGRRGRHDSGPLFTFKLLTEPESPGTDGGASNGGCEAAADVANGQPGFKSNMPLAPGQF

[42] = target: Alpha-2A adrenergic receptor (Homo sapiens) (UniProt P08913); conditions: Compound concentration 10.0 uM
[43] = target: Beta-2 adrenergic receptor (Homo sapiens) (UniProt P07550); conditions: Compound concentration 10.0 uM
[44] = target: Muscarinic acetylcholine receptor M3 (Homo sapiens) (UniProt P20309); conditions: Compound concentration 10.0 uM
Chain of Muscarinic acetylcholine receptor M3 (Homo sapiens) (P20309 whole entry, looked up): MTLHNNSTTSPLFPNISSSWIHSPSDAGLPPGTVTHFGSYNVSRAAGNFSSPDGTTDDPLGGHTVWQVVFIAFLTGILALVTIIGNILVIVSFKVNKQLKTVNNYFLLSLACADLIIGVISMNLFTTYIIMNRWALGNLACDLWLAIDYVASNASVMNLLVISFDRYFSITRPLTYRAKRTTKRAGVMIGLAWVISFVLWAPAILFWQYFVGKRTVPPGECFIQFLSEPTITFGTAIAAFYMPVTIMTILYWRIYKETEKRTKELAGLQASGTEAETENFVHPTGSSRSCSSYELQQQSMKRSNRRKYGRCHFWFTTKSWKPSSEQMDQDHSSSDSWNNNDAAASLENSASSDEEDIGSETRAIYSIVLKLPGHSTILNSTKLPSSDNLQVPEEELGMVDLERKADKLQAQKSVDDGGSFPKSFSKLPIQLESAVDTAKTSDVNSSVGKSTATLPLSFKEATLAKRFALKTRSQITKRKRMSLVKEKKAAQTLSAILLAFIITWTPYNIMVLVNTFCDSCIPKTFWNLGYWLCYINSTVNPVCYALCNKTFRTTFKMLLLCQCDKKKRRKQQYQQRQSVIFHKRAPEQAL

[45] = target: Beta-3 adrenergic receptor (Homo sapiens) (UniProt P13945); conditions: Compound concentration 10.0 uM

CC(=O)C1=C(C)N(c2cccc(C(F)(F)F)c2)C(=O)N[C@@H]1c1ccc(C#N)nc1 [BAY-678]
inactive: residual activity [1] 97.1% | residual activity [2] 100% | residual activity [3] 100% | residual activity [4] 87.5% | residual activity [5] 100% | residual activity [6] 92.4% | residual activity [7] 79.4% | residual activity [8] 65.3% | residual activity [9] 100% | residual activity [10] 100% | residual activity [11] 71.5% | residual activity [12] 93.7% | residual activity [13] 100% | residual activity [14] 100% | residual activity [15] 85% | residual activity [16] 98.9% | residual activity [17] 96.9% | residual activity [18] 100% | residual activity [19] 100% | residual activity [20] 92.6% | residual activity [21] 100% | residual activity [22] 93.3% | residual activity [23] 100% | residual activity [24] 100% | residual activity [25] 100% | residual activity [26] 100% | residual activity [27] 100% | residual activity [28] 80.7% | residual activity [29] 83.3% | residual activity [30] 97.4% | residual activity [31] 87.5% | residual activity [32] 99.2% | residual activity [33] 100% | residual activity [34] 95.9% | residual activity [35] 100% | residual activity [36] 99.7% | residual activity [37] 100% | inhibition [38] 6.69% | inhibition [39] 0.569% | inhibition [40] -2.61% | inhibition (Histamine H3 receptor) 50% | inhibition [41] -1.17% | inhibition [42] 10.5% | inhibition [43] 24.3% | inhibition [44] 10.4% | inhibition [45] -0.551%
